Results published in PubChem BioAssay AID248 (DTP/NCI, 2004).
“And” between values parts separate entries of the source, which are not always exact repeats. Equal entries are not always repeated. Inconclusive results and toxic doses are left out. Rule as the data show it: active = T/C of 150% or more; inactive = T/C below 125%.

System: L1210 leukemia ip in BDF1 mice, survival T/C
Assay: NCI In Vivo Anticancer Drug Screen. Data for tumor model L1210 Leukemia (intraperitoneal) in B6D2F1 (BDF1) mice
Conditions: endpoint: mean survival time, higher = longer survival
Method in brief: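 Ratio derived from survival: compound-dosed mice over vehicle-dosed mice, all bearing a transplantable tumor.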

[1] = dose: 100.0 mg/kg/injection, schedule: Q01DX001 (ip), vehicle: saline
[2] = dose: 200.0 mg/kg/injection, schedule: Q01DX001 (ip), vehicle: saline
[3] = dose: 100.0 mg/kg/injection, schedule: Q01DX009 (ip), vehicle: Klucel (hydroxypropylcellulose) (HPC)
[4] = dose: 200.0 mg/kg/injection, schedule: Q01DX009 (ip), vehicle: Klucel (hydroxypropylcellulose) (HPC)
[5] = dose: 100.0 mg/kg/injection, schedule: Q04DX002 (ip), vehicle: Klucel (hydroxypropylcellulose) (HPC)
[6] = dose: 400.0 mg/kg/injection, schedule: Q01DX001 (ip), vehicle: saline
[7] = dose: 100.0 mg/kg/injection, schedule: Q04DX003 (ip), vehicle: saline
[8] = dose: 200.0 mg/kg/injection, schedule: Q04DX003 (ip), vehicle: saline
[9] = dose: 400.0 mg/kg/injection, schedule: Q04DX003 (ip), vehicle: saline
[10] = dose: 100.0 mg/kg/injection, schedule: Q04DX003 (ip), vehicle: saline with Tween-80
[11] = dose: 200.0 mg/kg/injection, schedule: Q04DX003 (ip), vehicle: saline with Tween-80
[12] = dose: 400.0 mg/kg/injection, schedule: Q04DX003 (ip), vehicle: saline with Tween-80
[13] = dose: 50.0 mg/kg/injection, schedule: Q01DX001 (ip), vehicle: saline
[14] = dose: 100.0 mg/kg/injection, schedule: Q01DX009 (ip), vehicle: saline

Measured: T/C

C[n+]1ccccc1/C=C/c1csc2ccccc12
inactive: dose: 5.0 mg/kg/injection, schedule: Q01DX001 (ip), vehicle: carboxymethylcellulose (CMC) 100 % of control | dose: 10.0 mg/kg/injection, schedule: Q01DX001 (ip), vehicle: carboxymethylcellulose (CMC) 102 % of control | dose: 20.0 mg/kg/injection, schedule: Q01DX001 (ip), vehicle: carboxymethylcellulose (CMC) 100 % of control | dose: 40.0 mg/kg/injection, schedule: Q01DX001 (ip), vehicle: carboxymethylcellulose (CMC) 100 % of control | dose: 80.0 mg/kg/injection, schedule: Q01DX001 (ip), vehicle: carboxymethylcellulose (CMC) 107 % of control

CCc1n[nH]c(=S)n1N
inactive: dose: 12.5 mg/kg/injection, schedule: Q04DX003 (ip), vehicle: Klucel (hydroxypropylcellulose) (HPC) 94 % of control | dose: 25.0 mg/kg/injection, schedule: Q04DX003 (ip), vehicle: Klucel (hydroxypropylcellulose) (HPC) 89 % of control | dose: 50.0 mg/kg/injection, schedule: Q04DX003 (ip), vehicle: Klucel (hydroxypropylcellulose) (HPC) 96 % of control

O=C1NCC2(CCCCCC2)O1
inactive: [1] 104 % of control | [2] 108 % of control

O=C(O)c1cccc(OCc2ccccc2)c1
inactive: [3] 105 % of control | [4] 100 % of control

CCc1nc(NN)nc(CC)c1-c1ccccc1O
inactive: [5] 105 % of control | dose: 200.0 mg/kg/injection, schedule: Q04DX002 (ip), vehicle: Klucel (hydroxypropylcellulose) (HPC) 91 % of control

OC/C=C\CO
inactive: [1] 97 % of control and 103 % of control | [2] 97 % of control and 100 % of control | [6] 97 % of control and 105 % of control

O=S(=O)(C1CC1c1ccccc1)N1CCCc2ccccc21 (configuration not stated)
inactive: [1] 103 % of control | [7] 98 % of control | [2] 103 % of control | [8] 98 % of control | [6] 95 % of control | [9] 104 % of control

Cc1ccc(NS(=O)(=O)c2ccc([N+](=O)[O-])cc2)cc1
inactive: [10] 103 % of control | [11] 89 % of control | [12] 89 % of control

CC12CCCCC1(OC(=O)c1ccc([N+](=O)[O-])cc1)CCCC2 (configuration not stated)
inactive: dose: 75.0 mg/kg/injection, schedule: Q04DX002 (ip), vehicle: saline with Tween-80 100 % of control | dose: 150.0 mg/kg/injection, schedule: Q04DX002 (ip), vehicle: saline with Tween-80 104 % of control | dose: 300.0 mg/kg/injection, schedule: Q04DX002 (ip), vehicle: saline with Tween-80 88 % of control

CCC#CC(O)(C(=O)OC)c1ccccc1 (configuration not stated)
inactive: dose: 100.0 mg/kg/injection, schedule: Q01DX001 (ip), vehicle: carboxymethylcellulose (CMC) 100 % of control | dose: 200.0 mg/kg/injection, schedule: Q01DX001 (ip), vehicle: carboxymethylcellulose (CMC) 108 % of control | dose: 400.0 mg/kg/injection, schedule: Q01DX001 (ip), vehicle: carboxymethylcellulose (CMC) 96 % of control

c1cc2cc3c(cc2cc1CC1=NCCc2cc4c(cc21)OCO4)OCO3
inactive: dose: 100.0 mg/kg/injection, schedule: Q04DX003 (ip), vehicle: other 94 % of control | dose: 200.0 mg/kg/injection, schedule: Q01DX009 (ip), vehicle: other 102 % of control | dose: 200.0 mg/kg/injection, schedule: Q04DX003 (ip), vehicle: other 108 % of control | dose: 400.0 mg/kg/injection, schedule: Q01DX009 (ip), vehicle: other 94 % of control | dose: 400.0 mg/kg/injection, schedule: Q04DX003 (ip), vehicle: other 105 % of control

Cn1cc(C(N)=O)ccc1=N
inactive: [7] 113 % of control | [8] 98 % of control | [9] 106 % of control

O=c1[nH]c2ncccc2c(=O)n1O
inactive: [13] 96 % of control | [1] 100 % of control | [3] 96 % of control | [2] 96 % of control | [4] 98 % of control | dose: 400.0 mg/kg/injection, schedule: Q01DX009 (ip), vehicle: Klucel (hydroxypropylcellulose) (HPC) 94 % of control

[O-][n+]1c(Cl)cccc1Cl
inactive: dose: 15.0 mg/kg/injection, schedule: Q01DX001 (ip), vehicle: carboxymethylcellulose (CMC) 103 % of control | dose: 30.0 mg/kg/injection, schedule: Q01DX001 (ip), vehicle: carboxymethylcellulose (CMC) 112 % of control | dose: 60.0 mg/kg/injection, schedule: Q01DX001 (ip), vehicle: carboxymethylcellulose (CMC) 105 % of control

Cc1c2c(cc3c1CCCC3)CCCC2
inactive: dose: 100.0 mg/kg/injection, schedule: Q01DX001 (ip), vehicle: saline with Tween-80 93 % of control | dose: 200.0 mg/kg/injection, schedule: Q01DX001 (ip), vehicle: saline with Tween-80 93 % of control | dose: 400.0 mg/kg/injection, schedule: Q01DX001 (ip), vehicle: saline with Tween-80 92 % of control

C[C@@]1(O)CCCC[C@H]1O
inactive: [14] 95 % of control | [7] 106 % of control | dose: 200.0 mg/kg/injection, schedule: Q01DX009 (ip), vehicle: saline 105 % of control | [8] 103 % of control | dose: 400.0 mg/kg/injection, schedule: Q01DX009 (ip), vehicle: saline 96 % of control | [9] 92 % of control

CCOC(=O)CC1c2nc3ccccc3cc2CN1C(=O)CCOCc1ccccc1 (configuration not stated)
inactive: dose: 10.0 mg/kg/injection, schedule: Q04DX003 (ip), vehicle: alcohol 92 % of control | dose: 20.0 mg/kg/injection, schedule: Q04DX003 (ip), vehicle: alcohol 92 % of control | dose: 40.0 mg/kg/injection, schedule: Q04DX003 (ip), vehicle: alcohol 100 % of control | dose: 80.0 mg/kg/injection, schedule: Q04DX003 (ip), vehicle: alcohol 96 % of control | dose: 160.0 mg/kg/injection, schedule: Q04DX003 (ip), vehicle: alcohol 89 % of control

O=Cc1cccn1Cc1cc2c(cc1[N+](=O)[O-])OCO2
inactive: dose: 25.0 mg/kg/injection, schedule: Q04DX002 (ip), vehicle: Klucel (hydroxypropylcellulose) (HPC) 101 % of control | dose: 50.0 mg/kg/injection, schedule: Q04DX002 (ip), vehicle: Klucel (hydroxypropylcellulose) (HPC) 101 % of control | [5] 97 % of control

CC(=O)OCC(OC(C)=O)C(OC(C)=O)C(OC(C)=O)C(COC(C)=O)OC(C)=O (configuration not stated)
inactive: [10] 97 % of control | [11] 93 % of control | [12] 98 % of control

O=C(NC(=S)Nc1ccccc1C(=O)O)c1ccccc1
inactive: dose: 50.0 mg/kg/injection, schedule: Q01DX009 (ip), vehicle: saline sonified 96 % of control | dose: 100.0 mg/kg/injection, schedule: Q04DX003 (ip), vehicle: saline sonified 95 % of control | dose: 200.0 mg/kg/injection, schedule: Q01DX009 (ip), vehicle: saline sonified 94 % of control | dose: 200.0 mg/kg/injection, schedule: Q04DX003 (ip), vehicle: saline sonified 95 % of control

N#Cc1ccc(CC(=O)c2ccccc2)cc1
inactive: [13] 101 % of control | [1] 97 % of control | [2] 101 % of control | [6] 95 % of control

Cc1ccccc1OC(F)(F)C(F)Cl (configuration not stated)
inactive: dose: 100.0 mg/kg/injection, schedule: Q01DX009 (ip), vehicle: saline with Tween-80 103 % of control | [10] 96 % of control | dose: 200.0 mg/kg/injection, schedule: Q01DX009 (ip), vehicle: saline with Tween-80 91 % of control | [11] 94 % of control | dose: 400.0 mg/kg/injection, schedule: Q01DX009 (ip), vehicle: saline with Tween-80 86 % of control | [12] 96 % of control

N#[N+]c1c(O)cc(S(=O)(=O)O)c2ccccc12
inactive: [14] 92 % of control | [7] 94 % of control | [8] 101 % of control

COc1ccc(NCNc2ccc(OC)cc2)cc1
inactive: dose: 50.0 mg/kg/injection, schedule: Q01DX009 (ip), vehicle: Klucel (hydroxypropylcellulose) (HPC) 94 % of control | [3] 98 % of control | dose: 100.0 mg/kg/injection, schedule: Q04DX003 (ip), vehicle: Klucel (hydroxypropylcellulose) (HPC) 103 % of control | dose: 200.0 mg/kg/injection, schedule: Q04DX003 (ip), vehicle: Klucel (hydroxypropylcellulose) (HPC) 103 % of control

CSc1nc(O)cc(=O)n1C
inactive: dose: 100.0 mg/kg/injection, schedule: Q01DX Z (ip), vehicle: methylcellulose (MC) 95 % of control | dose: 200.0 mg/kg/injection, schedule: Q01DX Z (ip), vehicle: methylcellulose (MC) 101 % of control
